What was measured:
[1] = target: T1, Lecithin retinol acyltransferase (Bos taurus) (UniProt Q9BGL2); settings: at 100 µM
T1 sequence (whole entry): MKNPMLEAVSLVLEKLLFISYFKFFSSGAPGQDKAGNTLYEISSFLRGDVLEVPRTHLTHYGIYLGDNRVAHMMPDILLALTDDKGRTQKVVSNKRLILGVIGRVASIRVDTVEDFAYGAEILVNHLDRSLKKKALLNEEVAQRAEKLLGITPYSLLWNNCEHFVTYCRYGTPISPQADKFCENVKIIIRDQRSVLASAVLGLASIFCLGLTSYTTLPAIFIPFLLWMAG
Description: Inhibition of LRAT in bovine RPE microsomes at 100 uM using retinol substrate in presence of Palmitoyl-CoA incubated for 5 mins by HPLC analysis relative to control

[2] = target: T2, Diacylglycerol O-acyltransferase 1 (Bos taurus) (UniProt Q8MK44); settings: at 100 µM
T2 sequence (whole entry): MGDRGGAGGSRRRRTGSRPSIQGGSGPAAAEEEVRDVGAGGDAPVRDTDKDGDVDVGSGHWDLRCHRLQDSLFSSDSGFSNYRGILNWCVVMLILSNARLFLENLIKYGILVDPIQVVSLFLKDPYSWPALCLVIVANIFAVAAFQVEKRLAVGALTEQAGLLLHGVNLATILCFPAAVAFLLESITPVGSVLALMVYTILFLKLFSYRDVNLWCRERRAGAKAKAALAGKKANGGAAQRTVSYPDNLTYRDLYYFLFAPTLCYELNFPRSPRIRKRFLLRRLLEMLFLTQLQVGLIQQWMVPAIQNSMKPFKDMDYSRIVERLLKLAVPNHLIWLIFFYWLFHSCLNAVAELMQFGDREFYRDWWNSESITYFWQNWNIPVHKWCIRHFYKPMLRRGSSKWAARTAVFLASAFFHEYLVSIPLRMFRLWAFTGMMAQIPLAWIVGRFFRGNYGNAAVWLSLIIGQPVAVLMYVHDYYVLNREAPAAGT
Description: Inhibition of ARAT in bovine RPE microsomes at 100 uM using retinol substrate in presence of dilauroyl-phosphatidyl choline incubated for 5 mins by HPLC analysis relative to control

[3] = organism: Homo sapiens
Description: Inhibition of transglutaminase in human keratinocytes in presence of 10 uM retinal relative to retinal alone

[4] = organism: Homo sapiens; assay: Inhibition of transglutaminase in human keratinocytes assessed as mean transglutaminase activity level at 8.2 10^-8M in presence of 10 uM retinal relative to retinal alone; assay type: cell-based; design: scale not given: the % may be the effect or the level left
[5] = organism: Homo sapiens; assay: Inhibition of transglutaminase in human keratinocytes assessed as mean transglutaminase activity level at 3 10^-5M in presence of 10 uM retinal relative to retinal alone; assay type: cell-based; design: scale not given: the % may be the effect or the level left
[6] = organism: Homo sapiens; assay: Inhibition of transglutaminase in human keratinocytes assessed as mean transglutaminase activity level at 4.1 10^-8M in presence of 10 uM retinal relative to retinal alone; assay type: cell-based; design: scale not given: the % may be the effect or the level left
[7] = organism: Homo sapiens; assay: Inhibition of transglutaminase in human keratinocytes assessed as mean transglutaminase activity level at 1 10^-5M in presence of 10 uM retinal relative to retinal alone; assay type: cell-based; design: scale not given: the % may be the effect or the level left
[8] = organism: Homo sapiens; assay: Inhibition of transglutaminase in human keratinocytes assessed as mean transglutaminase activity level at 3.29 10^-9M in presence of 10 uM retinal relative to retinal alone; assay type: cell-based; design: scale not given: the % may be the effect or the level left
[9] = organism: Homo sapiens; assay: Inhibition of transglutaminase in human keratinocytes assessed as mean transglutaminase activity level at 1.1 10^-6M in presence of 10 uM retinal relative to retinal alone; assay type: cell-based; design: scale not given: the % may be the effect or the level left
[10] = organism: Homo sapiens; assay: Inhibition of transglutaminase in human keratinocytes assessed as mean transglutaminase activity level at 1.65 10^-9M in presence of 10 uM retinal relative to retinal alone; assay type: cell-based; design: scale not given: the % may be the effect or the level left
[11] = organism: Homo sapiens; assay: Inhibition of transglutaminase in human keratinocytes assessed as mean transglutaminase activity level at 3.73 10^-7M in presence of 10 uM retinal relative to retinal alone; assay type: cell-based; design: scale not given: the % may be the effect or the level left
[12] = organism: Homo sapiens; assay: Inhibition of transglutaminase in human keratinocytes assessed as mean transglutaminase activity level at 3.3 10^-6M in presence of 10 uM retinal relative to retinal alone; assay type: cell-based; design: scale not given: the % may be the effect or the level left
[13] = organism: Rattus norvegicus; assay: Inhibition of retinal reductase in Sprague-Dawley rat liver microsomes at 100 uM using all-trans retinaldehyde and NADPH by HPLC analysis relative to control
[14] = organism: Homo sapiens; assay: Inhibition of transglutaminase in human keratinocytes assessed as mean transglutaminase activity level at 1.23 10^-7M in presence of 10 uM retinal relative to retinal alone; assay type: cell-based; design: scale not given: the % may be the effect or the level left
[15] = target: T2, Diacylglycerol O-acyltransferase 1 (Bos taurus); assay: Inhibition of ARAT in bovine RPE microsomes at 10 uM using retinol substrate in presence of dilauroyl-phosphatidyl choline incubated for 5 mins by HPLC analysis relative to control
[16] = target: T1, Lecithin retinol acyltransferase (Bos taurus); assay: Inhibition of LRAT in bovine RPE microsomes at 10 uM using retinol substrate in presence of Palmitoyl-CoA incubated for 5 mins by HPLC analysis relative to control
[17] = organism: Homo sapiens; assay: Inhibition of transglutaminase in human keratinocytes assessed as mean transglutaminase activity level at 8.2 10^-6M in presence of 10 uM retinal relative to retinal alone; assay type: cell-based; design: scale not given: the % may be the effect or the level left
[18] = organism: Homo sapiens; assay: Inhibition of transglutaminase in human keratinocytes assessed as mean transglutaminase activity level at 3.29 10^-7M in presence of 10 uM retinal relative to retinal alone; assay type: cell-based; design: scale not given: the % may be the effect or the level left
[19] = organism: Homo sapiens; assay: Inhibition of transglutaminase in human keratinocytes assessed as mean transglutaminase activity level at 1.1 10^-4M in presence of 10 uM retinal relative to retinal alone; assay type: cell-based; design: scale not given: the % may be the effect or the level left
[20] = organism: Homo sapiens; assay: Inhibition of transglutaminase in human keratinocytes assessed as mean transglutaminase activity level at 1.65 10^-7M in presence of 10 uM retinal relative to retinal alone; assay type: cell-based; design: scale not given: the % may be the effect or the level left
[21] = organism: Homo sapiens; assay: Inhibition of transglutaminase in human keratinocytes assessed as mean transglutaminase activity level at 4.1 10^-5M in presence of 10 uM retinal relative to retinal alone; assay type: cell-based; design: scale not given: the % may be the effect or the level left
[22] = organism: Homo sapiens; assay: Inhibition of transglutaminase in human keratinocytes assessed as mean transglutaminase activity level at 3.73 10^-4M in presence of 10 uM retinal relative to retinal alone; assay type: cell-based; design: scale not given: the % may be the effect or the level left
[23] = organism: Homo sapiens; assay: Inhibition of transglutaminase in human keratinocytes assessed as mean transglutaminase activity level at 1.0 10^-3M in presence of 10 uM retinal relative to retinal alone; assay type: cell-based; design: scale not given: the % may be the effect or the level left

CCN(CC)CC(=O)Nc1c(C)cccc1C
inhibition [1]: 0%

CC(=O)C1(C)C2CC3C(C2)C31C (centres undefined)
inhibition [1]: 12%
inhibition [2]: 23%

CCCCCCCCCCCC(=O)NCCC[N+](C)(C)CC(=O)[O-]
inhibition [2]: 25%

CC(=O)N1CCN(c2ccc(OCC3COC(Cn4ccnc4)(c4ccc(Cl)cc4Cl)O3)cc2)CC1 (centres undefined)
IC20 [3]: 5.52 ×10⁻⁸ M

COc1cc(NS(C)(=O)=O)ccc1Nc1c2ccccc2nc2ccccc12
Activity [4]: 131%
Activity [5]: -10%
Activity [6]: 110%
Activity [7]: 1.8%
Activity [8]: 92%
Activity [9]: 84%
Activity [10]: 113%
Activity [11]: 109%
Activity [12]: 64%
inhibition [13]: 22%
IC20 [3]: 3.3 ×10⁻⁶ M
Activity [14]: 65%

O=c1ccc2ccccc2[nH]1
IC20 [3]: 1.7 ×10⁻⁴ M

CC(=O)/C=C/C=C(\C)CCC=C(C)C
inhibition [2]: 12%

CC1=CC(C)C(CO)C(C)C1 (centres undefined)
inhibition [1]: 16%
inhibition [2]: 18%

O=C1C[C@@H](c2ccc(O)cc2)Oc2cc(O)cc(O)c21
inhibition [1]: 14%

C/C=C\C(=O)C1C(C)=CCCC1(C)C (centres undefined)
inhibition [15]: 67%
inhibition [1]: 98%
inhibition [16]: 87%
IC20 [3]: 1.69 ×10⁻⁴ M
inhibition [2]: 83%

CCC(=O)C=CC1C(C)=CCCC1(C)C (centres undefined)
inhibition [1]: 77%
inhibition [2]: 67%

CCCCCCCC/C=C\CCCCCCCC1=NCCN1CCO
IC20 [3]: 5.65 ×10⁻⁶ M

CC(C)=CCC/C(C)=C/CC/C(C)=C/CC/C(C)=C/CO
inhibition [15]: 38%
inhibition [1]: 77%
inhibition [16]: 16%
inhibition [2]: 81%

CC1(C)[C@@H](O)CC[C@]2(C)[C@H]3C(=O)C=C4[C@@H]5C[C@@](C)(C(=O)O)CC[C@]5(C)CC[C@@]4(C)[C@]3(C)CC[C@@H]12
Activity [4]: 225%
Activity [5]: -0.3%
Activity [6]: 93%
Activity [7]: 0.7%
Activity [8]: 100%
Activity [9]: 96.4%
Activity [10]: 103%
Activity [11]: 120%
Activity [12]: 2.5%
inhibition [13]: 38%
IC20 [3]: 5.96 ×10⁻⁶ M
Activity [14]: 112%

CC1(C)[C@@H](OC(=O)CCC(=O)O)CC[C@]2(C)[C@H]3C(=O)C=C4[C@@H]5C[C@@](C)(C(=O)O)CC[C@]5(C)CC[C@@]4(C)[C@]3(C)CC[C@@H]12
Activity [4]: 112%
Activity [5]: -7.1%
Activity [6]: 135%
Activity [7]: 27.3%
Activity [8]: 64%
Activity [9]: 158%
Activity [10]: 77.8%
Activity [11]: 126%
Activity [12]: 51.7%
inhibition [13]: 26%
IC20 [3]: 2 ×10⁻⁷ M
Activity [14]: 81%

CC(C)(O)CCCC1=CCC(C=O)CC1 (centres undefined)
IC20 [3]: 4 ×10⁻⁵ M

CC1=CC[C@H](CC[C@H](C)CO)C1(C)C
inhibition [1]: 75%
inhibition [2]: 70%

Clc1ccc(COC(Cn2ccnc2)c2ccc(Cl)cc2Cl)c(Cl)c1 (centres undefined)
IC20 [3]: 8.42 ×10⁻⁸ M

CCCCCCCCCCCCCC(=O)O
Activity [17]: 74.2%
Activity [18]: 101%
Activity [19]: -8%
Activity [20]: 88.9%
Activity [21]: 75.1%
Activity [22]: -6%
Activity [23]: -2%
IC20 [3]: 1.05 ×10⁻⁵ M

CC1=CCCC(C)(C)C1/C=C/C(=O)CC(C)C (centres undefined)
inhibition [1]: 45%
inhibition [2]: 8%

CCCCCCCCCCCC1=NCCN1CCO
IC20 [3]: 2.69 ×10⁻⁷ M

CCCCC/C=C\C/C=C\CCCCCCCC(=O)N(CCO)CCO
inhibition [15]: 12%
inhibition [1]: 51%
inhibition [16]: 11%
inhibition [2]: 43%

CCCCC/C=C\C/C=C\CCCCCCCC(=O)NCCO
inhibition [16]: 20%
IC20 [3]: 1.48 ×10⁻⁵ M

Reference: ChEMBL document CHEMBL4420071, “Method for treating skin with retinoids and retinoid boosters” (2013)
